We go through 20 compounds from BindingDB's records for doi:10.1038/nbt1059 (Plexxikon, 2005).

Structures are written as SMILES. Some results are limits rather than exact numbers.

Experiment [1] deals with T1, cAMP-specific 3',5'-cyclic phosphodiesterase 4B [316-320,321-700,S319G,N320S,N321H,T322M] (Homo sapiens, UniProt Q07343, S319G/N320S/N321H/T322M).
T1 construct: 316-320,321-700
Nature of the experiment: Phosphodiesterase (PDE) Inhibition Assay. The following applies: pH 7.5; 30 °C. As for the experimental part:
(§1) Phosphodiesterase activities were assayed in the presence of inhibitor compounds. Measurement takes advantage of the selective binding of 5-AMP or 5-GMP (and not cAMP or cGMP) to yttrium silicate beads with embedded scintillant. Hydrolysis is quantified by reading in a scintillation counter (Trilux, Wallac). The cAMP and cGMP concentrations used were far below the Km of PDE.

Experiment [2] deals with cAMP-specific 3',5'-cyclic phosphodiesterase 4D [372-376,381-715,S375G,I381V,S383G,G384S,V385H,K386M) (Homo sapiens, UniProt Q08499, S375G/I381V/S383G/G384S/V385H/K386M). The experiment in a line: Phosphodiesterase (PDE) Inhibition Assay. As for the experimental part:
as §1

In general, IC50 refers to the concentration needed to halve the response being measured. Lower therefore signals greater potency in that assay. Take `CCOC(=O)c1c(C)nn(-c2ccc(N)cc2)c1C` [ethyl 1-(4-aminophenyl)-3,5-dimethyl-1H-pyrazole-4-carboxylate]: the half-maximal inhibitory concentration (IC50) in experiment [1] was 0.35 µM.
`CCOC(=O)c1c(C)nn(-c2ccc([N+](=O)[O-])cc2)c1C` [ethyl 3,5-dimethyl-1-(4-nitrophenyl)-1H-pyrazole-4-carboxylate]: the IC50 in experiment [1] was 0.84 µM; in experiment [2], 1 µM.
With `CCOC(=O)c1c(C)nn(-c2ccccc2)c1C` [ethyl 3,5-dimethyl-1-phenyl-1H-pyrazole-4-carboxylate], the IC50 in experiment [1] amounted to 0.31 µM.
As to `CCOC(=O)c1c(-c2ccc(OC)cc2)n[nH]c1N` [ethyl 3-amino-5-(4-methoxyphenyl)-1H-pyrazole-4-carboxylate], the IC50 in experiment [1] was determined as 15 µM; in experiment [2], 19 µM.
Consider `CCOC(=O)c1cn(-c2ccccc2)nc1-c1ccc(Cl)cc1` [ethyl 3-(4-chlorophenyl)-1-phenyl-1H-pyrazole-4-carboxylate], for which the IC50 in experiment [1] came out at 1.5 µM; in experiment [2], 0.88 µM.
Compound `CCOC(=O)c1c(C)nn(-c2ccc(OC)cc2)c1C` [ethyl 1-(4-methoxyphenyl)-3,5-dimethyl-1H-pyrazole-4-carboxylate] yielded an IC50 in experiment [1] of 5.9 µM. In other words, the single-digit micromolar range.
As to `CCOC(=O)c1c(C)nn(-c2ccc(OC(F)(F)F)cc2)c1C` [ethyl 3,5-dimethyl-1-[4-(trifluoromethoxy)phenyl]-1H-pyrazole-4-carboxylate], the IC50 in experiment [1] was determined as 32 µM; in experiment [2] it was 21 µM.
The like results for `Cc1n[nH]c(C)c1C(=O)O` [3,5-dimethyl-1H-pyrazole-4-carboxylic acid] were, in that order, over 200 µM and over 200 µM.
With `CCOC(=O)c1cn[nH]c1C` [ethyl 3-methyl-1H-pyrazole-4-carboxylate], the IC50 in experiment [1] and in experiment [2] was over 200 µM throughout.
`CCOC(=O)c1c(C)n[nH]c1C` [ethyl 3,5-dimethyl-1H-pyrazole-4-carboxylate] had an IC50 in experiment [1] of 60 µM. In other words, the double-digit micromolar range.
Regarding `CCOC(=O)c1c[nH]nc1C(F)(F)F` [5-(trifluoromethyl)-1H-pyrazole-4-carboxylic acid ethyl ester], the IC50 in experiment [1] and in experiment [2] was over 200 µM throughout.
For the compound `CCOC(=O)c1cnn(-c2ncnc3sc4c(c23)CCCC4)c1N` [ethyl 5-amino-1-{8-thia-4,6-diazatricyclo[7.4.0.0^{2,7}]trideca-1(9),2(7),3,5-tetraen-3-yl}-1H-pyrazole-4-carboxylate], the figures for the IC50 in experiment [1] and in experiment [2] were 25 µM and 50 µM, respectively.
Take `CCOC(=O)c1c(C)nn(-c2ccccc2Cl)c1C` [ethyl 1-(2-chlorophenyl)-3,5-dimethyl-1H-pyrazole-4-carboxylate]: 0.019 µM corresponded to half-maximal inhibition in experiment [2] (IC50).
Turning to `CCOC(=O)c1c(C)nn(-c2cc(C(F)(F)F)cc(C(F)(F)F)c2)c1C` [ethyl 1-[3,5-bis(trifluoromethyl)phenyl]-3,5-dimethyl-1H-pyrazole-4-carboxylate], the IC50 in experiment [1] came out at 160 µM; in experiment [2] it was 97 µM.
Regarding `CCOC(=O)c1c(C)nn(-c2cccc3cccnc23)c1C` [ethyl 3,5-dimethyl-1-(quinolin-8-yl)-1H-pyrazole-4-carboxylate], the IC50 in experiment [1] is 17 µM; in experiment [2], 19 µM.
Consider `CCOC(=O)c1c(C)nn(-c2ccc([N+](=O)[O-])cc2[N+](=O)[O-])c1C` [ethyl 1-(2,4-dinitrophenyl)-3,5-dimethyl-1H-pyrazole-4-carboxylate], for which the IC50 in experiment [1] is 17 µM; in experiment [2], 4.6 µM.
Take `CCOC(=O)c1cn[nH]c1N` [ethyl 3-amino-1H-pyrazole-4-carboxylate]: the IC50 in experiment [1] and in experiment [2] was over 200 µM each time.
For `CCOC(=O)c1c(C)nn(-c2ccc(S(N)(=O)=O)cc2)c1C` [ethyl 3,5-dimethyl-1-(4-sulfamoylphenyl)-1H-pyrazole-4-carboxylate], the IC50 in experiment [1] is 13 µM; in experiment [2] it was 9.1 µM.
With `CCOC(=O)c1c(C)nn(-c2ccc(C(C)(C)C)cc2)c1C` [ethyl 1-(4-tert-butylphenyl)-3,5-dimethyl-1H-pyrazole-4-carboxylate], the results for the half-inhibitory concentration (IC50) in experiment [1] and in experiment [2] were 19 µM and 14 µM, respectively.
Consider `COC(=O)c1c(-c2cc(C)on2)n[nH]c1C` [methyl 3-methyl-5-(5-methyl-1,2-oxazol-3-yl)-1H-pyrazole-4-carboxylate], for which the IC50 in experiment [1] and in experiment [2] was over 200 µM each time.
